The nature of this data set: caloric availability by in vivo animal feeding study (body weight gain). On the set-up: species or system Sprague-Dawley rats. The settings on record: rats, diet of 50% fort and 21% test compound, 14 days. The source says: This example illustrates how the novel fat mimetics of this invention are screened for caloric availability by a carefully controlled in vivo animal feeding study.
An experimental relationship between total calories ingested and animal body weight gain is established by monitoring the body weight gain associated with consumption of a nutritionally balanced diet containing varying concentrations of a reference substance such as corn oil which has a known caloric availability. Correlations between total calories ingested and body weight gain are excellent (r=0.99).
Caloric availability of a test material is evaluated by substituting a specific weight of the test material for the reference substance and observing the body weight gain. The gain in body weight is equated to a total number of calories using the correlation previously established for the reference data. The estimated number of calories ingested are divided by the weight of test material to give the apparent calories per gram for the test material. Generally speaking, in these bioavailability studies, the degree of perianal pelt soiling correlates with reduced bioavailability.
The test animals are six-week-old male Sprague-Dawley rats obtained from the Portage, Michigan facility of the Charles River Laboratories, Inc. After acclimation for 15 days, the test duration is 14 days. […]

We go through one molecule from patent US5190783A, “Primary amide esters as low calorie fat mimetics” (Nabisco, Inc., priority 1991, dated 1993).

Turning to `CCCCCCCC/C=C\CCCCCCCC(=O)NCC(COC(=O)CCCCCCC/C=C\CCCCCCCC)OC(=O)CCCCCCC/C=C\CCCCCCCC` (stereo not shown) [Example 2, 2,3-s(oleyoyloxy)propyl oleamide], the “calories upon being metabolized (apparent calories per gram)” value was “about 3.3 kcal/gram”.
